Experimental findings from publication PMC5610471, “Use of the KlADH3 promoter for the quantitative production of the murine PDE5A isoforms in the yeast Kluyveromyces lactis” (Microbial Cell Factories, 2017) are described below.

For one series, the target named is T1, PDE5A1 (Mus musculus, UniProt Q8CG03).
T1 construct: gene Pde5a
The series is described as follows: biochemical.

Series [1] relates to [H][C@@]12COP(=O)(O)O[C@@]1([H])[C@@H](O)[C@H](n1cnc3c(=O)[nH]c(N)nc31)O2. Briefly: purified protein. The settings on record: Mg2+ ([…] MgCl2 in the assay buffer).

In general, IC50 refers to the concentration at which inhibition is half-maximal. Low values mean greater potency in that assay, high ones weaker potency in that assay. For the compound `CCCc1nn(C)c2c(=O)[nH]c(-c3cc(S(=O)(=O)N4CCN(C)CC4)ccc3OCC)nc12` [Sildenafil], on PDE5A1, the IC50 was determined as 4.7 ± 1.1 nM.
One may read the Km as the substrate concentration at which the rate is half of its maximum. As to PDE5A1 (Mus musculus), the Michaelis-Menten constant (Km) in series [1] worked out at 1.08 ± 0.08 µM.
